Results taken from ChEMBL document CHEMBL5360629, “AI-Powered Virtual Screening of Large Compound Libraries Leads to the Discovery of Novel Inhibitors of Sirtuin-1” (J Med Chem, 2023).
Activity calls are given as the source filed them. The rule behind the calls is not given here.

Legend:
[1] = biological target: T1, NAD-dependent protein deacetylase sirtuin-1 (Homo sapiens) (UniProt Q96EB6); settings: dose 20.0 µM
T1 sequence (whole entry): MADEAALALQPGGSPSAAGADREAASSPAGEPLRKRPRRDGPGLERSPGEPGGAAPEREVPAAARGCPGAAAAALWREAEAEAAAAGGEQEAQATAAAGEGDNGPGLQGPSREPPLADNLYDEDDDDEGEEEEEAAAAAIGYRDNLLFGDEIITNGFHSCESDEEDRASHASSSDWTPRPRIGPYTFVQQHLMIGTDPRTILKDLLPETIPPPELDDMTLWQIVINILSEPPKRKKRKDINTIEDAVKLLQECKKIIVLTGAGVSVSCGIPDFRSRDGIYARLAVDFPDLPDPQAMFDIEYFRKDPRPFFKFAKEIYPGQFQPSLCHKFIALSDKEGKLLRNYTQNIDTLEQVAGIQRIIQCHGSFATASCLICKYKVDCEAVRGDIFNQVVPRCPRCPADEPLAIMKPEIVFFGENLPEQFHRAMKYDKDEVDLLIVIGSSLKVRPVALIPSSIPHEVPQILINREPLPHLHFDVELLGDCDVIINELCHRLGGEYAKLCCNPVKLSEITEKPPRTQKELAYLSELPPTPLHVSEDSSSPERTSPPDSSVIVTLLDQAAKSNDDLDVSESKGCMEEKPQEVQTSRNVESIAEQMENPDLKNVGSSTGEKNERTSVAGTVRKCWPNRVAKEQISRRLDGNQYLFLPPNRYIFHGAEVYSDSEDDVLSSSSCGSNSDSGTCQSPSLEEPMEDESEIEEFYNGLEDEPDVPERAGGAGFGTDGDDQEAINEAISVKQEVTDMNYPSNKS
Description: Binding affinity to human recombinant truncated Sirtuin-1 expressed in Escherichia coli assessed as change in melting temperature at 20 uM by SYPRO orange dye based thermal shift assay

[2] = biological target: T2, NAD-dependent protein deacetylase sirtuin-1 (Homo sapiens, UniProt Q96EB6); assay: Inhibition of Sirtuin-1 (unknown origin) incubated for 30 mins by luminogenic SIRT-Glo assay
T2 sequence (Q96EB6 whole entry): T1 sequence (whole entry)

[3] = biological target: Carbonic anhydrase (Homo sapiens) (UniProt P00918+P43166+P00915+P07451+P23280+O43570+Q9ULX7+Q16790+P22748+Q8N1Q1+Q9Y2D0+P35218); assay: Binding affinity to carbonic anhydrase (unknown origin) assessed as change in melting temperature incubated for 15 mins by Sypro orange staining based thermal scanning analysis; assay type: protein assay; settings: dose 0.01-1000 µM

Row | SMILES | ΔTm [1] [°C] | IC50 [2] [µM] | Activity [3]
1 | O=C(CCc1c[nH]c2ccccc12)NNC(=O)CCc1c[nH]c2ccccc12 | 2.8 |  | 
2 | O=S(=O)(NCCc1c[nH]c2ccccc12)c1cc(Cl)cc(Cl)c1 | 1 |  | 
3 | O=C(CCc1ccccc1O)NCCc1c[nH]c2ccccc12 | 12.9 |  | 

More lines, now with the values ahead:

Row | ΔTm [1] [°C] | IC50 [2] [µM] | Activity [3] | SMILES
4 | 1.6 | 40 | inactive | COc1ccc(N2CCN(c3nc(-c4ccccc4)nc4ccccc34)CC2)cc1
5 | 1 |  |  | NC(=O)c1ccc(N2CCN(C(c3ccccc3)c3ccccc3)CC2)c([N+](=O)[O-])c1
6 | 2.1 |  |  | O=C(Nc1ccccc1)Nc1ccc(NC(=O)c2ccc(Br)cc2)cc1
7 | 1.8 | 3.4 | Dose-Dependent Effect | O=C(NCCc1c[nH]c2ccccc12)c1ccccc1O
